Reference: PubChem BioAssay (NCI)
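1) Cells in 96-well plates. 2) Compound, 48 h, 5 concentrations. 3) Linear interpolation between surrounding doses. 4) Unreached endpoint = highest concentration. Abbreviation: GI50, concentration required for 50% inhibition of growth. Definition used: TGI = concentration required for complete inhibition of growth.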

Columns and labels:
Test in all cases: NCI-60 cell line screen, 48 h
COLO 205 colon = tested on: COLO 205 colon
NCI-H226 lung = tested on: NCI-H226 lung
MDA-MB-435 = tested on: MDA-MB-435
HCT-15 colon = tested on: HCT-15 colon
PC-3 prostate = tested on: PC-3 prostate
RXF 393 renal = tested on: RXF 393 renal
HOP-62 NSCLC = tested on: HOP-62 NSCLC
A498 renal = tested on: A498 renal
NCI-H23 lung = tested on: NCI-H23 lung
NCI-H522 lung = tested on: NCI-H522 lung
SK-MEL-2 melanoma = tested on: SK-MEL-2 melanoma
UACC-62 melanoma = tested on: UACC-62 melanoma
NCI-H460 lung = tested on: NCI-H460 lung
HCC-2998 colon = tested on: HCC-2998 colon
SF-268 CNS = tested on: SF-268 CNS
HS 578T breast = tested on: HS 578T breast
MDA-MB-231 breast = tested on: MDA-MB-231 breast
SF-539 CNS = tested on: SF-539 CNS
A549 NSCLC = tested on: A549 NSCLC
K-562 leukemia = tested on: K-562 leukemia
OVCAR-5 ovarian = tested on: OVCAR-5 ovarian
M14 melanoma = tested on: M14 melanoma
HT29 colon = tested on: HT29 colon
SF-295 CNS = tested on: SF-295 CNS
SK-MEL-5 melanoma = tested on: SK-MEL-5 melanoma
UO-31 renal = tested on: UO-31 renal
T-47D breast = tested on: T-47D breast
RPMI-8226 leukemia = tested on: RPMI-8226 leukemia
SW-620 colon = tested on: SW-620 colon
SN12C renal = tested on: SN12C renal
EKVX NSCLC = tested on: EKVX NSCLC
HL-60(TB) leukemia = tested on: HL-60(TB) leukemia
UACC-257 melanoma = tested on: UACC-257 melanoma
CCRF-CEM leukemia = tested on: CCRF-CEM leukemia
U251 CNS = tested on: U251 CNS
SK-OV-3 ovarian = tested on: SK-OV-3 ovarian
786-0 renal = tested on: 786-0 renal
CAKI-1 renal = tested on: CAKI-1 renal
SNB-19 CNS = tested on: SNB-19 CNS
MOLT-4 leukemia = tested on: MOLT-4 leukemia
BT-549 breast = tested on: BT-549 breast
SR leukemia = tested on: SR leukemia
ACHN renal = tested on: ACHN renal
OVCAR-8 ovarian = tested on: OVCAR-8 ovarian
HCT-116 colon = tested on: HCT-116 colon
SNB-75 CNS = tested on: SNB-75 CNS
TK-10 renal = tested on: TK-10 renal
IGROV1 ovarian = tested on: IGROV1 ovarian
MCF7 breast = tested on: MCF7 breast
DU-145 prostate = tested on: DU-145 prostate
KM12 colon = tested on: KM12 colon
NCI/ADR-RES ovarian = tested on: NCI/ADR-RES ovarian

`N#Cc1c(NC(=O)c2ccccc2C(F)(F)F)sc2c1CCC(=O)C2` gave a GI50 (COLO 205 colon) of 1870 nM, a TGI (COLO 205 colon) of 3740 nM and a GI50 (NCI-H226 lung) of 2090 nM. It also gave a TGI (NCI-H226 lung) of 5940 nM, a GI50 (MDA-MB-435) of 1970 nM and a TGI (MDA-MB-435) of 5860 nM. For the same compound, the GI50 (HCT-15 colon) was 405 nM, the TGI (HCT-15 colon) was 1850 nM and the GI50 (PC-3 prostate) was 384 nM. It also gave a TGI (PC-3 prostate) of 15600 nM, a GI50 (RXF 393 renal) of 1050 nM and a TGI (RXF 393 renal) of 2800 nM. For the same compound, the GI50 (HOP-62 NSCLC) was 3120 nM, the TGI (HOP-62 NSCLC) was > 100000 nM and the GI50 (A498 renal) was 10500 nM. For the same compound, the TGI (A498 renal) was 25000 nM, the GI50 (NCI-H23 lung) was 1040 nM and the TGI (NCI-H23 lung) was 9280 nM. The GI50 (NCI-H522 lung) was 360 nM, the TGI (NCI-H522 lung) was 2580 nM and the GI50 (SK-MEL-2 melanoma) was 2650 nM. For the same compound, the TGI (SK-MEL-2 melanoma) was 7020 nM, the GI50 (UACC-62 melanoma) was 1180 nM and the TGI (UACC-62 melanoma) was 2960 nM. For the same compound, the GI50 (NCI-H460 lung) was 3350 nM, the TGI (NCI-H460 lung) was 19000 nM and the GI50 (HCC-2998 colon) was 2910 nM. For the same compound, the TGI (HCC-2998 colon) was 11500 nM, the GI50 (SF-268 CNS) was 3310 nM and the TGI (SF-268 CNS) was 34000 nM. The GI50 (HS 578T breast) was 1950 nM, the TGI (HS 578T breast) was 8360 nM and the GI50 (MDA-MB-231 breast) was 2080 nM. The TGI (MDA-MB-231 breast) was 5430 nM, the GI50 (SF-539 CNS) was 480 nM and the TGI (SF-539 CNS) was 1910 nM. For the same compound, the GI50 (A549 NSCLC) was 3670 nM, the TGI (A549 NSCLC) was 29200 nM and the GI50 (K-562 leukemia) was 378 nM. It also gave a TGI (K-562 leukemia) of 11300 nM, a GI50 (OVCAR-5 ovarian) of 1480 nM and a TGI (OVCAR-5 ovarian) of 3810 nM. It also gave a GI50 (M14 melanoma) of 2090 nM, a TGI (M14 melanoma) of 9330 nM and a GI50 (HT29 colon) of 771 nM. The TGI (HT29 colon) was 9170 nM, the GI50 (SF-295 CNS) was 2580 nM and the TGI (SF-295 CNS) was 7050 nM. The GI50 (SK-MEL-5 melanoma) was 1650 nM, the TGI (SK-MEL-5 melanoma) was 3470 nM and the GI50 (UO-31 renal) was 490 nM. It also gave a TGI (UO-31 renal) of 1820 nM, a GI50 (T-47D breast) of 374 nM and a TGI (T-47D breast) of 3240 nM. The GI50 (RPMI-8226 leukemia) was 272 nM, the TGI (RPMI-8226 leukemia) was 954 nM and the GI50 (SW-620 colon) was 427 nM. It also gave a TGI (SW-620 colon) of 2520 nM, a GI50 (SN12C renal) of 2500 nM and a TGI (SN12C renal) of 15900 nM. It also gave a GI50 (EKVX NSCLC) of 2680 nM, a TGI (EKVX NSCLC) of 11400 nM and a GI50 (HL-60(TB) leukemia) of 405 nM. The TGI (HL-60(TB) leukemia) was 4020 nM, the GI50 (UACC-257 melanoma) was 2210 nM and the TGI (UACC-257 melanoma) was 6480 nM. For the same compound, the GI50 (CCRF-CEM leukemia) was 325 nM, the TGI (CCRF-CEM leukemia) was 14900 nM and the GI50 (U251 CNS) was 1240 nM. The TGI (U251 CNS) was > 100000 nM, the GI50 (SK-OV-3 ovarian) was 4870 nM and the TGI (SK-OV-3 ovarian) was 50400 nM. The GI50 (786-0 renal) was 3250 nM, the TGI (786-0 renal) was > 100000 nM and the GI50 (CAKI-1 renal) was 785 nM. For the same compound, the TGI (CAKI-1 renal) was 2560 nM, the GI50 (SNB-19 CNS) was 3370 nM and the TGI (SNB-19 CNS) was > 100000 nM. For the same compound, the GI50 (MOLT-4 leukemia) was 1610 nM, the TGI (MOLT-4 leukemia) was 16700 nM and the GI50 (BT-549 breast) was 1090 nM. It also gave a TGI (BT-549 breast) of 8620 nM, a GI50 (SR leukemia) of 359 nM and a TGI (SR leukemia) of 5820 nM. For the same compound, the GI50 (ACHN renal) was 433 nM, the TGI (ACHN renal) was 1480 nM and the GI50 (OVCAR-8 ovarian) was 1680 nM. For the same compound, the TGI (OVCAR-8 ovarian) was > 100000 nM, the GI50 (HCT-116 colon) was 363 nM and the TGI (HCT-116 colon) was 4890 nM. It also gave a GI50 (SNB-75 CNS) of 1630 nM, a TGI (SNB-75 CNS) of 6100 nM and a GI50 (TK-10 renal) of 1640 nM. For the same compound, the TGI (TK-10 renal) was 9830 nM, the GI50 (IGROV1 ovarian) was 2370 nM and the TGI (IGROV1 ovarian) was 13100 nM. For the same compound, the GI50 (MCF7 breast) was 1390 nM, the TGI (MCF7 breast) was 10300 nM and the GI50 (DU-145 prostate) was 4670 nM. The TGI (DU-145 prostate) was > 100000 nM, the GI50 (KM12 colon) was 3440 nM and the TGI (KM12 colon) was 13900 nM. It also gave a GI50 (NCI/ADR-RES ovarian) of 1310 nM and a TGI (NCI/ADR-RES ovarian) of 5180 nM.
